The source of these data is US8148403B2, “Substituted piperidyl-propane-thiols” (Boehringer Ingelheim International GmbH, priority 2006, dated 2012).

Compound `CCc1c(C2CCN(CCCSc3ccc(F)cc3)CC2)c2ccc(F)cc2n1-c1nc(C)ccc1O` [Example 3] returned a melting point of 142 °C.
